The results in this text go back to ChEMBL document CHEMBL4020702, “Development of α1,6-fucosyltransferase inhibitors through the diversity-oriented syntheses of GDP-fucose mimics using the coupling between alkyne and sulfonyl azide” (Bioorg Med Chem, 2017).

In general, inhibition refers to the drop in the measured response relative to a control, in per cent.

This test addresses T1, Alpha-(1,6)-fucosyltransferase (Homo sapiens) (UniProt Q9BYC5).
T1 sequence (whole entry): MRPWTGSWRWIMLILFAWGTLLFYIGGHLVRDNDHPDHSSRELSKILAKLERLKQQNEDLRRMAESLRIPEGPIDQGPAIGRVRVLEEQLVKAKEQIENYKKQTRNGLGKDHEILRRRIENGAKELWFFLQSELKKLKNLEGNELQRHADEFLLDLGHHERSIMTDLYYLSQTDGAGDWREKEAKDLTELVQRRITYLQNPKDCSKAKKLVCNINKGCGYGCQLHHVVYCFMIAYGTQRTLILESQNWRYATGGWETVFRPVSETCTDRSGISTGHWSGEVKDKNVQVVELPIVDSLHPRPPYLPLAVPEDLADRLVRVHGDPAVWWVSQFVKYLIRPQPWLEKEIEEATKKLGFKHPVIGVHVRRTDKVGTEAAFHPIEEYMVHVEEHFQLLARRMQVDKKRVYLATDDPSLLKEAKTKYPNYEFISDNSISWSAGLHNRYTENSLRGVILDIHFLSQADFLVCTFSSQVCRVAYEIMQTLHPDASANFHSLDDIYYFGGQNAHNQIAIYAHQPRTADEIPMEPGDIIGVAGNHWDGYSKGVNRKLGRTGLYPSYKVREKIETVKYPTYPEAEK
Description: Inhibition of FUT8 in human […] cells at 100 uM using (S)-2-(((9H-fluoren-9-yl)methoxy)carbonylamino)-4-((2R,3R,4R,5S,6R)-3-acetamido-5-((2S,3R,4R,5S,6R)-3-acetamido-5-((2S,3S,4S,5R,6R)-4-((2R,3S,4S,5S,6R)-3-((2S,3R,4R,5S,6R)-3-acetamido-4,5-dihydroxy-6-(hydroxymethyl)tetrahydro-2H-pyran-2-yloxy)-4,5-dihydroxy-6-(hydroxymethyl)tetrahydro-2H-pyran-2-yloxy)-6-(((2S,3S,4S,5S,6R)-3-((2S,3R,4R,5S,6R)-3-acetamido-4,5-dihydroxy-6-(hydroxymethyl)tetrahydro-2H-pyran-2-yloxy)-4,5-dihydroxy-6-(hydroxymethyl)tetrahydro-2H-pyran-2-yloxy)methyl)-3,5-dihydroxytetrahydro-2H-pyran-2-yloxy)-4-hydroxy-6-(hydroxymethyl)tetrahydro-2H-pyran-2-yloxy)-4-hydroxy-6-(hydroxymethyl)tetrahydro-2H-pyran-2-ylamino)-4-oxobutanoic acid as substrate after 24 hrs in presence of GDP-fucose by HPLC method relative to control. Type of test: cell-based.
`C[C@@H]1O[C@H](OCc2cn(S(=O)(=O)CCCCCn3cnc4c(=O)[nH]c(N)nc43)nn2)[C@@H](O)[C@H](O)[C@@H]1O`: the inhibition came to 45%.
The figure for `CCCS/C(CCO[C@H]1O[C@@H](C)[C@@H](O)[C@@H](O)[C@@H]1O)=N\S(=O)(=O)CCCCCn1cnc2c(=O)[nH]c(N)nc21` is 14%; for `CO/C(CCO[C@H]1O[C@@H](C)[C@@H](O)[C@@H](O)[C@@H]1O)=N\S(=O)(=O)CCCCCn1cnc2c(=O)[nH]c(N)nc21` it is 57%; for `CCN(CC)/C(CCO[C@H]1O[C@@H](C)[C@@H](O)[C@@H](O)[C@@H]1O)=N\S(=O)(=O)CCCCCn1cnc2c(=O)[nH]c(N)nc21` it is 39%.
Take `CCCN/C(CCO[C@H]1O[C@@H](C)[C@@H](O)[C@@H](O)[C@@H]1O)=N\S(=O)(=O)CCCCCn1cnc2c(=O)[nH]c(N)nc21`: the inhibition worked out at 41%.
In the case of `C[C@@H]1O[C@H](OCCC(=O)NS(=O)(=O)CCCCCn2cnc3c(=O)[nH]c(N)nc32)[C@@H](O)[C@H](O)[C@@H]1O`, the inhibition is 31%.
